Consider eight compounds from patent US20030073618A1, “Compounds comprising disulfide-containing peptides and nitrogenous bases, and medical uses thereof” (priority 2001, published 2003).

Assay [1] has as its system hepatitis C virus (HCV). The assay is described as follows: Efficacy study in chronic viral hepatitis C, 74 patients (Tables 54-55).
Assay [2] relates to hepatitis B virus (HBV). Put plainly: Efficacy study in chronic viral hepatitis B, 62 patients (Tables 47-49). In kind it is in vivo, human.
Assay [3] has as its system hepatitis B virus (HBV). The assay is described as above. Type of assay: in vivo, human. The settings on record: month 1 (after treatment). The text has this: (§1) State of patient upon completion of treatment.
Assay [4] relates to white rats with DMNA-induced liver cirrhosis. The assay is described as follows: Experimental dimethylnitrosamine (DMNA)-induced liver cirrhosis in rats. In kind it is in vivo. How it is done: The method of Jezequel, A. M. et al. was used to induce liver cirrhosis in the rats. (Dimethylnitrosamine-induced cirrhosis. Evidence for an immunological mechanism. J. […] DMNA was dissolved by normal saline. To obtain considerable cirrhosis 4 such injection cycles were sufficient. For morphologic examination after narcotized euthanasia samples of liver tissue from central and right side lobes were taken. The liver samples were fixated by mixture of formalin, alcohol and acetic acid. […] The van-Gison stained samples where collagen fibers had red color were used for the study. […] By number of pixels forming the selected objects a relative square occupied by developed collagen (connective tissue) in the liver tissue was calculated. The measurement results were statistically processed. The difference significance between mean samples using the Student criterion with significance level of p=0.05. The morphological alterations were assessed on the samples with blind marking reducing risk of aggravation of the study results. The pathologic process and agent efficacy were assessed by clinical signs (weight, appearance, ascites, motional activity, death) as well as morphologic ones after animal necropsy with following morphologic liver sample examination. After development of pathologic process, i.e. in 4 weeks after the DMNA introduction onset, all animals were randomized in 4 groups of 12 animals in each. […] The agents were introduced every other day intramuscularly, in femur muscle.

Assay [5] concerns hepatitis B virus (HBV). The assay is described as follows: Efficacy study in acute viral hepatitis B with severe course, 35 patients (Tables 50-53). In kind it is in vivo, human.
Excerpt: as §1

[6] abbreviates: month 2 (1 month after treatment).
Setting [7] is: month 4 (3 months after treatment).

Marks after values point to notes of the source that are not given here.

Regarding `Nc1ccn([C@H]2CC[C@@H](CO)O2)c(=O)n1` [Hivid], the “ALT in Chronic HCV Infection” value in assay [1] (Baseline (before treatment)) is given as 187.5 ± 48.4 U/L; in assay [1] (month 1 (after treatment)) it was “**190 ± 71.1 U/L”; in assay [1] (setting [6]), “**153 ± 25.3 U/L”; in assay [1] (setting [7]), “**151 ± 25.2 U/L”.
Regarding `Nc1ccn([C@H]2CC[C@@H](CO)O2)c(=O)n1` [Zalzitabin], the “PCR (%) in Chronic HCV Infection” value in assay [1] (Baseline (before treatment)) was 100%; in assay [1] (month 1 (after treatment)) it was “**73.9* %”; in assay [1] (setting [6]) it was “**56.5* %”; in assay [1] (setting [7]) it was “**60.9* %”.
For the compound `CC(=O)OCC(CCn1cnc2cnc(N)nc21)COC(C)=O` [Famvir], the “ALT in Chronic HBV Infection” value in assay [2] (Baseline (before treatment)) is given as 165.7 ± 13.8 U/L; in assay [2] (setting [6]), “**75.9 ± 9.6 U/L”; in assay [2] (setting [7]) it was “**77.9 ± 10.2 U/L”; in assay [3] it was “**70.2 ± 9.1 U/L”. Besides, the “HbsAg in Chronic HBV Infection” value in assay [2] (Baseline (before treatment)) was 157.8 ± 8.84 ng/mL; in assay [2] (setting [6]) it was “**153.5 ± 10.14 ng/mL”; in assay [2] (setting [7]), “**132.5 ± 43.76 ng/mL”; in assay [3], “**150.5 ± 10.43 ng/mL”. The “PCR (%) in Chronic HBV Infection” value is recorded as 100% in assay [2] (Baseline (before treatment)), “**60.0%” in assay [2] (setting [6]), “**20.0%” in assay [2] (setting [7]) and “**50.0* %” in assay [3].
Consider `Cc1cn([C@H]2C[C@H](N=[N+]=[N-])[C@@H](CO)O2)c(=O)[nH]c1=O` [Retrovir], for which the “ALT in Chronic HCV Infection” value in assay [1] (Baseline (before treatment)) is 180 ± 20.0 U/L; in assay [1] (month 1 (after treatment)) it was “**132.0 ± 51.5 U/L”; in assay [1] (setting [6]), “**108 ± 40.3 U/L”; in assay [1] (setting [7]), “**90.0 ± 25.2 U/L”.
For the compound `Cc1cn([C@H]2C[C@H](N=[N+]=[N-])[C@@H](CO)O2)c(=O)[nH]c1=O` [Zidovudine], the “PCR (%) in Chronic HCV Infection” value in assay [1] (Baseline (before treatment)) is 100%; in assay [1] (month 1 (after treatment)), “**54.5* %”; in assay [1] (setting [6]), “**63.6* %”; in assay [1] (setting [7]), “**59.1* %”.
Consider `C[S+](CC[C@H](N)C(=O)[O-])C[C@H]1O[C@@H](n2cnc3c(N)ncnc32)[C@H](O)[C@@H]1O` (stereo partly shown) [Heptral, S-adenosyl-methionine], for which the values for the Rat weight in assay [4] (1 treatment week), in assay [4] (3 treatment weeks) and in assay [4] (6 treatment weeks) were 191.0 g, 212 g and 232 g, respectively. Further, the “Relative square of the connective tissue in a liver section” value in assay [4] (3 weeks after cirrhosis modeling completion) is 8.215 ± 0.751%; in assay [4] (6 weeks after cirrhosis modeling completion), 7.781 ± 0.943 %. Further, the “Collagen amount lowered comparing to the normal saline control (times)” value in assay [4] (6-week dosing) turned out to be 1.7 times; in assay [4] (treatment for 3 weeks) it was 1.1 times. Also, the “Decrease of liver fibrosis-formation rate” value in assay [4] (comparison agent) was found to be 35%.
For the compound `C[C@]12C=CC(=O)C=C1CC[C@@H]1[C@@H]2[C@@H](O)C[C@@]2(C)[C@H]1CC[C@]2(O)C(=O)CO` [Prednisolone], in assay [5] (Baseline (before treatment)), the “ALT in Severe HBV Infection” value is 1657.9 ± 96.5 U/L, the “Bilirubin in Severe HBV Infection” value is 313.9 ± 62.6 µmol/L, the “HbsAg in Severe HBV Infection” value turned out to be 189.7 ± 20.4 ng/mL and the “PCR (%) in Severe HBV Infection” value stood at 100%. Also, in assay [5] (month 1 (after treatment)), the “ALT in Severe HBV Infection” value was “**293.8 ± 18.8 U/L”, the “Bilirubin in Severe HBV Infection” value is reported as “**86.9 ± 21.9 μmole/L”, the “HbsAg in Severe HBV Infection” value is listed as “**97.8 ± 18.6 ng/mL” and the “PCR (%) in Severe HBV Infection” value is recorded as “**66.7%”. Besides, in assay [5] (setting [6]), the “ALT in Severe HBV Infection” value is “**145.4 ± 15.5 U/L”, the “Bilirubin in Severe HBV Infection” value was “**31.4 ± 14.6 μmole/L”, the “HbsAg in Severe HBV Infection” value is recorded as “**87.7 ± 12.7 ng/mL” and the “PCR (%) in Severe HBV Infection” value was “**66.7%”. Besides, in assay [5] (setting [7]), the “ALT in Severe HBV Infection” value is listed as “**65.3 ± 15.7 U/L”, the “Bilirubin in Severe HBV Infection” value is listed as “**26.84 ± 13.99 μmole/L”, the “HbsAg in Severe HBV Infection” value is listed as “**76.6 ± 15.4 ng/mL” and the “PCR (%) in Severe HBV Infection” value is recorded as “**53.3%”.
Consider `CC(C)(C)NC(=O)[C@@H]1C[C@@H]2CCCC[C@@H]2CN1C[C@@H](O)[C@H](Cc1ccccc1)NC(=O)[C@H](CC(N)=O)NC(=O)c1ccc2ccccc2n1` [Invirasa], for which the “ALT in Chronic HBV Infection” value in assay [2] (Baseline (before treatment)) was 165.7 ± 17.0 U/L; in assay [2] (setting [6]), “**71.4 ± 6.5 U/L”; in assay [2] (setting [7]), “**71.8 ± 7.4 U/L”; in assay [3] it was “**90.8 ± 5.5 U/L”. In addition, the “HbsAg in Chronic HBV Infection” value in assay [2] (Baseline (before treatment)) was 137.0 ± 20.6 ng/mL; in assay [2] (setting [6]) it was “**112.2 ± 22.2 ng/mL”; in assay [2] (setting [7]) it was “**172.0 ± 14.5 ng/mL”; in assay [3], “**109.0 ± 54.5 ng/mL”. The “PCR (%) in Chronic HBV Infection” value in assay [2] (Baseline (before treatment)) is on record as 100%; in assay [2] (setting [6]) it was “**60.0* %”; in assay [2] (setting [7]), “**60.0%”; in assay [3] it was “**70.0* %”.
